# Assay results: article PMC6697720, “Saturation of acyl chains converts cardiolipin from an antagonist to an activator of Toll-like receptor-4” (Cellular and Molecular Life Sciences: CMLS, 2019)
# How the values were obtained:
# human TLR4/MD2/CD14 = biological target: T1, human TLR4/MD2/CD14 (Homo sapiens, UniProt O00206+Q9Y6Y9); assay: Inhibition of LPS-induced NF-κB luciferase reporter in HEK293 cells transfected with human TLR4/MD2/CD14; type: cell-based; conditions: for inhibition of LPS-induced signaling (LPS dose-response, 0 to 1000 ng/mL), mode of action: 1 h CL pre-incubation
# T1 construct: expressed in transfected cells; host or cells: HEK293 (ATCC CRL1573), transient transfection with jetPEI
# Procedure: Cells were seeded at 4 × 10^4 cells/mL in 96-well plates (200 μL/well) and transiently transfected 4 days later. Expression vectors containing an NF-κB transcription reporter vector-encoding firefly luciferase (10 ng/well pNF-κB-luc from Clontech), and a constitutively active reporter vector-encoding Renilla luciferase (5 ng/well phRG-TK; Promega), together with empty vector (pcDNA3.1 from Invitrogen Cat. N. V79020) and cDNA encoding human membrane CD14 (3 ng/well) and human or murine TLR4 and MD2 (3 ng/well) were mixed with jetPEI (Polyplus transfection Cat.N. 101-10N) and incubated with cells according to the manufacturer’s instructions.
# After treatment supernatants were discarded, cells were washed with PBS and lysed with passive lysis buffer (Promega Cat.N. E1941). Luciferase and Renilla activity on cell lysates were quantified on a BioTek Synergy HT microplate reader using home-made luciferase reagent (20 mM Tricine, 2.67 mM MgSO4·7H2O, 0.265 mM (MgCO3)4Mg(OH)2·5H2O, 0.1 mM EDTA, 33.3 mM DTT, 530 μM ATP, 270 μM Acetyl Coenzyme A (Lithium salt), 470 μM luciferin (Biosynth), pH 7.8, diluted two times in water before use), or coelenterazine (Biosynth) dissolved in ethanol at 1 mg/mL and diluted 500 times in PBS before use as previously described. Firefly and Renilla luciferase activity on cell lysates were normalized, and data were expressed as fold induction as compared to unstimulated conditions.
# In contrast to C16:0 and C18:0, C14:0 CL acted as an agonist in murine but not human cells (Fig. 3), a property similar to that of the LPS variant lipid IVa. to establish whether C14:0, like lipid IVa, is a weak human TLR4 antagonist, we tested the ability of all saturated CLs to inhibit signaling induced by LPS over a range of concentrations. For each CL, cells transfected with human TLR4/MD2/CD14 were pre-incubated with medium alone or two different CL concentrations for 1 h, and then washed and incubated for 6 h with increasing amounts of LPS (from 0 to 1000 ng/mL). […] The dose–response curve of LPS was shifted to the right.
# (§1) Fig. 6 C14:0 is a competitive human TLR4 antagonist. HEK293 cells were transfected with plasmids encoding hTLR4, hMD2, and hCD14 together with a luciferase reporter plasmid dependent on NF-κB activation and a constitutively active reporter vector-encoding renilla luciferase. Two days after transfection, cells were incubated for 1 h with medium alone or the indicated amount of CLs, then washed and incubated 6 h with increasing amount of LPS. Luciferase and renilla were then quantified in cell lysate, and normalized and reported here as fold induction as compared to control. Each bar represents the mean ± standard deviation of three biological replicates (n = 3). Graphs are representative of at least three independent experiments
# as §1, with “7 Unsaturated cardiolipins are” for “6 C14:0 is a”, “antagonists.” for “antagonist.”, “CLs, and” for “CLs,”
# To quantify and compare the potency of CLs as inhibitors, we determined IC50 values in HEK293 cells transfected with human TLR4/MD2/CD14, for each of the antagonists (Fig. 8 and Table 1). […]
# primary BMDM cells = assay: TNF-α and IP-10 secretion in primary BMDMs incubated with CL or LPS alone; type: cell-based, murine; conditions: overnight
# Procedure: Bone marrow was isolated from femurs and tibias of 10-week-old C57BL/6 mice killed by cervical dislocation. Briefly, bone marrow was flushed out with a syringe filled with DMEM, pelleted down, and resuspended and homogenized in complete medium (DMEM supplemented with 10% heat-inactivated FBS from South America, 2 mM glutamine, 50 U/mL penicillin, 50 μg/mL streptomycin, and 20% of supernatant taken from L929 cells). The cell suspension generated thereafter was then maintained in petri dishes for 7 days.
# Primary BMDM cells were detached from petri dishes and seeded the day before the experiment in 96-well plates at 0.75 × 10^6 cells/mL (200 μL/well).
# After stimulation, supernatants were collected, centrifuged, and assayed for cytokine secretion, while cells were assayed for viability.
# TNF-α and IP-10 were quantified in cell supernatants using DuoSet ELISA kits from R&D Systems and human IL-1β using Instant ELISA™ Kit from Invitrogen, according to the manufacturer’s instructions. Absorbance was read with a BioTek Synergy HT Microplate Readers. […]
# Primary BMDM cells were incubated overnight with medium (ctrl) or C14:0 CL at the indicated concentrations. TNF-α and IP-10 were measured by ELISA in collected supernatants. […]
# T1 sequence (O00206 24-839): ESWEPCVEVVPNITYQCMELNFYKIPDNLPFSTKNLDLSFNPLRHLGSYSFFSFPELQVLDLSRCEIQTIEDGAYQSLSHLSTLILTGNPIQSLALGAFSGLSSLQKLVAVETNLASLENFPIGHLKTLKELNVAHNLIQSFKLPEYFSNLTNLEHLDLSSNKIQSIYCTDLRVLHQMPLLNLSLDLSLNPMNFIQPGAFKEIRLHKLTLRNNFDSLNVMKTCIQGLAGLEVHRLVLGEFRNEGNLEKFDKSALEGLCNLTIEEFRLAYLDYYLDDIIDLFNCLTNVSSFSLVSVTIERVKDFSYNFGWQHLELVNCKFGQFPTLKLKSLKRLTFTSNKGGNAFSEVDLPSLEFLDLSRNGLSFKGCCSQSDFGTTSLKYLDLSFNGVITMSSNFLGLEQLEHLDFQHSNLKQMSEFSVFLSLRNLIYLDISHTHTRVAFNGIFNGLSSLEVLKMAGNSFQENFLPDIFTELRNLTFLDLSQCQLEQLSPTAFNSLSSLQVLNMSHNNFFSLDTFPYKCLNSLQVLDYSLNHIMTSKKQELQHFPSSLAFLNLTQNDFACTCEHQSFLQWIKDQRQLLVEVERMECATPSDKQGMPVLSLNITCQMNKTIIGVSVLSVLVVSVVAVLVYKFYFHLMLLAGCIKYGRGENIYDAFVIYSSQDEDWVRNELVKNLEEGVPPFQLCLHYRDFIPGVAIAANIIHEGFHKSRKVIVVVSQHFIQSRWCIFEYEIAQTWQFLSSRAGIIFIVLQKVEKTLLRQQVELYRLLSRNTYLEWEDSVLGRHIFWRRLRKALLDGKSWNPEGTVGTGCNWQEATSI
# T1 sequence (Q9Y6Y9 19-160): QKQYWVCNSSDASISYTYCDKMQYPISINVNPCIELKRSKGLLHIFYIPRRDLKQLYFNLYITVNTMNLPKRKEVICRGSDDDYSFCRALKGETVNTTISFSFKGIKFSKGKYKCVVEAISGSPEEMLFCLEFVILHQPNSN
"inhibition of LPS-induced signaling (LPS dose-response, 0 to 1000 ng/mL), mode of action (human TLR4/MD2/CD14; washed, 6 h LPS)","inhibition of LPS-induced signaling (LPS dose-response, 0 to 1000 ng/mL), mode of action (human TLR4/MD2/CD14; washed, 6 h LPS, listed as C14:0)","IC50 (human TLR4/MD2/CD14; HEK293 hTLR4/hMD2/hCD14, 1 h CL, washed, 6 h LPS, Prism fit of Fig. 8 data) [µM]","IC50 (human TLR4/MD2/CD14; approx., HEK293 human TLR4/MD2/CD14) [µM]",SMILES,IP-10 secretion (primary BMDM cells),TNF-α secretion (primary BMDM cells)
competitive inhibitor,competitive TLR4 antagonists,~325,~300,CCCCCCCCCCCCCC(=O)OC[C@H](COP(=O)(O)OCC(O)COP(=O)(O)OC[C@@H](COC(=O)CCCCCCCCCCCCC)OC(=O)CCCCCCCCCCCCC)OC(=O)CCCCCCCCCCCCC (stereo partly shown) [C14:0 CL],induces,induces
did not inhibit,–,–,–,CCCCCCCCCCCCCCCCCC(=O)OC[C@H](COP(=O)(O)OCC(O)COP(=O)(O)OC[C@@H](COC(=O)CCCCCCCCCCCCCCCCC)OC(=O)CCCCCCCCCCCCCCCCC)OC(=O)CCCCCCCCCCCCCCCCC (stereo partly shown) [C18:0 CL],–,–
